Key:
B2 bradykinin receptor = target: T1, B2 bradykinin receptor (Homo sapiens, UniProt P30411); type: cell membranes, Membrane; conditions: chem-1; also: in other assays of this panel Not Active means under 50% inhibition at 10 µM
T1 sequence (P30411 whole entry): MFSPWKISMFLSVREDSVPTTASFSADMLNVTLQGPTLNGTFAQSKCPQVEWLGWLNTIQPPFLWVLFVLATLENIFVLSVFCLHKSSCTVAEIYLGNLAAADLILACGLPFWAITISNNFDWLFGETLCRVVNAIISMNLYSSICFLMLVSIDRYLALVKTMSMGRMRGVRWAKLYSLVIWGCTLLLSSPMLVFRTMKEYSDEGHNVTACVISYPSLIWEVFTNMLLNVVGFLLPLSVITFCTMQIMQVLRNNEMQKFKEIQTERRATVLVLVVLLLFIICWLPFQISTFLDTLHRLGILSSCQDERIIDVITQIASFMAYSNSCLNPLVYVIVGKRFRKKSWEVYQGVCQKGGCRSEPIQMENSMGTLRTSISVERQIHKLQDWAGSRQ

[1] = DRUGMATRIX: Sodium/nucleoside co-transporter radioligand binding (ligand: nitrobenzylthioinosine); type: cell membranes, Cavia porcellus, Dunkin-Hartley, Cerebral cortex, Membrane; conditions: Not Active = under 50% inhibition at 10 µM
Neutrophil elastase = target: T2, Neutrophil elastase (Homo sapiens, UniProt P08246); type: tissue-based;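 also: inhibition of neutrophil elastase enzyme activity, measured with a p-nitroanilide-linked peptide substrate; in other assays of this panel Not Active means under 50% inhibition at 10 µM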
T2 sequence (P08246 whole entry): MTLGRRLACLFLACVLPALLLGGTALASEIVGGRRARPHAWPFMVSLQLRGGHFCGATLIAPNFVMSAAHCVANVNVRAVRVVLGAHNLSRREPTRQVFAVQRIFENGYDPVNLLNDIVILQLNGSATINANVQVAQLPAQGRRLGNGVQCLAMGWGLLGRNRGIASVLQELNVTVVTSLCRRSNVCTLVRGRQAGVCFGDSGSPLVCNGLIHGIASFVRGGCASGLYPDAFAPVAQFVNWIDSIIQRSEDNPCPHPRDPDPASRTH

[2] = target: T3, Cholecystokinin receptor type A (Homo sapiens, UniProt P32238); type: cell membranes, Membrane; conditions: 1321-n1; also: in other assays of this panel Not Active means under 50% inhibition at 10 µM
T3 sequence (P32238 whole entry): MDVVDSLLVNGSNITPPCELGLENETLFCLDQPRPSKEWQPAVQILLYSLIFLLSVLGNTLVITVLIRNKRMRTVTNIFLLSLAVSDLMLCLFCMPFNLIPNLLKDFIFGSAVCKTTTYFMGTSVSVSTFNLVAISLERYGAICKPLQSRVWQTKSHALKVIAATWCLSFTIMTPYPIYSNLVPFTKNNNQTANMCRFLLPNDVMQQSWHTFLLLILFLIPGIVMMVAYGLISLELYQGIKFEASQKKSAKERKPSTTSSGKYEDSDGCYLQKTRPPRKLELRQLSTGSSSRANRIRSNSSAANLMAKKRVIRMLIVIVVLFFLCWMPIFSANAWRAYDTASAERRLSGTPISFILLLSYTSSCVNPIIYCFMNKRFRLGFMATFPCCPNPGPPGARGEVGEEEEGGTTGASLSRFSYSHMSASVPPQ

Adenosine receptor A2a = Adenosine receptor A2a (Homo sapiens, UniProt P29274); assay: DRUGMATRIX: Adenosine A2A radioligand binding (ligand: […]); type: cell membranes, HEK293, Membrane; conditions: hek293; Not Active = under 50% inhibition at 10 µM
Sequence of Adenosine receptor A2a (P29274 whole entry): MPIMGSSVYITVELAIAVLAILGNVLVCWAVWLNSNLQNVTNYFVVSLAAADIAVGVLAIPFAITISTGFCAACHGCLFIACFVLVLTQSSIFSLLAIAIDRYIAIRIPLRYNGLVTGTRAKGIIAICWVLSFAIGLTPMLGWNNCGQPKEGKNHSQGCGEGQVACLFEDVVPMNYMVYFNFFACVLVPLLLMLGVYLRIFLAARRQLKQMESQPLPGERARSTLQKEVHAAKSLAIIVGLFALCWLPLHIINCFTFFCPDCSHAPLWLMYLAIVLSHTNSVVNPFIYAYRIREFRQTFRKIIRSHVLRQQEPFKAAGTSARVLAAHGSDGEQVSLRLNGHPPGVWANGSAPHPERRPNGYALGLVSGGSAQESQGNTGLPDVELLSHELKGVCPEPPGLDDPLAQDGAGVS

[3] = DRUGMATRIX: Phorbol Ester radioligand binding (ligand: [3H] PDBu); type: cell membranes, Mus musculus, ICR, Brain, Membrane; conditions: Not Active = under 50% inhibition at 10 µM
[4] = target: T4, Neuropeptide Y receptor type 2 (Homo sapiens, UniProt P49146); type: cell membranes, Membrane; conditions: kan-ts; also: in other assays of this panel Not Active means under 50% inhibition at 10 µM
T4 sequence (P49146 whole entry): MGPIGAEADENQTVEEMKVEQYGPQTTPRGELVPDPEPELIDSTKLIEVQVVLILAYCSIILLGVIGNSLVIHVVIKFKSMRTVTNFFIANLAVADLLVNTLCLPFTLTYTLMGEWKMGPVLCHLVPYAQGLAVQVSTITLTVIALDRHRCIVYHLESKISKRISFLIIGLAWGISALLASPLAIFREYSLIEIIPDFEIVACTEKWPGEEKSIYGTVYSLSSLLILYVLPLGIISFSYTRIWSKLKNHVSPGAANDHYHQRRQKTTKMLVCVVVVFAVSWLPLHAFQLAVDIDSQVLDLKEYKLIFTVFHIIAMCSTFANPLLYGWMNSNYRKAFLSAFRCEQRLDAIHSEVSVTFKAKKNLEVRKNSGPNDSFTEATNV

[5] = target: T5, Vasoactive intestinal polypeptide receptor 1 (Homo sapiens, UniProt P32241); type: cell membranes, Membrane; conditions: ht-29; also: in other assays of this panel Not Active means under 50% inhibition at 10 µM
T5 sequence (P32241 whole entry): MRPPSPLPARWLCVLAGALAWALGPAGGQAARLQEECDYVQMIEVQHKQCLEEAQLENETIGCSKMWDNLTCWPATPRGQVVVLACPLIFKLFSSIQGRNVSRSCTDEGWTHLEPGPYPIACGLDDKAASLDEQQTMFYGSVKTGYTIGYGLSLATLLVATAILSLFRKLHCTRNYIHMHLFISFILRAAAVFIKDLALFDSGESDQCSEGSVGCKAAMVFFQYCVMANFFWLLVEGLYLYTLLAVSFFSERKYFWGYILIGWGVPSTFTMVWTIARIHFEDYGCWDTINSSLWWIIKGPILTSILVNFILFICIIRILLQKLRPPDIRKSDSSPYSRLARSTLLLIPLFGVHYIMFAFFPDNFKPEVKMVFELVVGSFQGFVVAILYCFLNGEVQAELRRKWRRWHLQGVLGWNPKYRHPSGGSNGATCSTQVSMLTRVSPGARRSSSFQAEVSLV

[6] = DRUGMATRIX: Atrial Natriuretic Factor (ANF) radioligand binding (ligand: [125I] ANF (rat)); type: cell membranes, Cavia porcellus, Dunkin-Hartley, Adrenal gland, Membrane; conditions: Not Active = under 50% inhibition at 10 µM

Cc1ccc(Cl)c(Nc2ccccc2C(=O)O)c1Cl [MECLOFENAMIC ACID]
Not Active: IC50 (B2 bradykinin receptor) | IC50 [1] | Ki [1] | IC50 (Neutrophil elastase) | IC50 [2] | IC50 (Adenosine receptor A2a) | IC50 [3] | Ki [3] | IC50 [4] | IC50 [5] | IC50 [6] | Ki [6]

CCOC(=O)C1=C(C)NC(C)=C(C(=O)OCC)C1c1ccccc1/C=C/C(=O)OC(C)(C)C [LACIDIPINE]
Not Active: IC50 (B2 bradykinin receptor) | IC50 [1] | Ki [1] | IC50 (Neutrophil elastase) | IC50 [2] | IC50 (Adenosine receptor A2a) | IC50 [3] | Ki [3] | IC50 [4] | IC50 [5] | IC50 [6] | Ki [6]

O=C(c1ccccc1)c1ccc2n1CCC2C(=O)O (stereo not drawn) [KETOROLAC]
Not Active: IC50 (B2 bradykinin receptor) | IC50 [1] | Ki [1] | IC50 (Neutrophil elastase) | IC50 [2] | IC50 (Adenosine receptor A2a) | IC50 [3] | Ki [3] | IC50 [4] | IC50 [5] | IC50 [6] | Ki [6]

CCN(CC)N=O [N-NITROSODIETHYLAMINE]
Not Active: IC50 (B2 bradykinin receptor) | IC50 [1] | Ki [1] | IC50 (Neutrophil elastase) | IC50 [2] | IC50 (Adenosine receptor A2a) | IC50 [3] | Ki [3] | IC50 [4] | IC50 [5] | IC50 [6] | Ki [6]

CO[C@@]12[C@H](COC(N)=O)C3=C(C(=O)C(C)=C(N)C3=O)N1C[C@@H]1N[C@@H]12 [MITOMYCIN]
Not Active: IC50 (B2 bradykinin receptor) | IC50 [1] | Ki [1] | IC50 (Neutrophil elastase) | IC50 [2] | IC50 (Adenosine receptor A2a) | IC50 [3] | Ki [3] | IC50 [4] | IC50 [5] | IC50 [6] | Ki [6]

Cc1ccc(S(=O)(=O)NC(=O)NN2CCCCCC2)cc1 [TOLAZAMIDE]
Not Active: IC50 (B2 bradykinin receptor) | IC50 [1] | Ki [1] | IC50 (Neutrophil elastase) | IC50 [2] | IC50 (Adenosine receptor A2a) | IC50 [3] | Ki [3] | IC50 [4] | IC50 [5] | IC50 [6] | Ki [6]

CCC(C)(C)C(=O)O[C@H]1C[C@@H](C)C=C2C=C[C@H](C)[C@H](CC[C@@H]3C[C@@H](O)CC(=O)O3)[C@H]21 [SIMVASTATIN]
Not Active: IC50 (B2 bradykinin receptor) | IC50 [1] | Ki [1] | IC50 (Neutrophil elastase) | IC50 [2] | IC50 (Adenosine receptor A2a) | IC50 [3] | Ki [3] | IC50 [4] | IC50 [5] | IC50 [6] | Ki [6]

LEAD(IV) ACETATE
Not Active: IC50 (B2 bradykinin receptor) | Ki (B2 bradykinin receptor) | IC50 [1] | Ki [1] | IC50 (Neutrophil elastase) | Ki (Neutrophil elastase) | IC50 [2] | Ki [2] | IC50 (Adenosine receptor A2a) | Ki (Adenosine receptor A2a) | IC50 [3] | Ki [3] | IC50 [4] | Ki [4] | IC50 [5] | Ki [5] | IC50 [6] | Ki [6]

CCN1CCCC1CNC(=O)c1cc(S(N)(=O)=O)ccc1OC (stereo not drawn) [SULPIRIDE]
Not Active: IC50 (B2 bradykinin receptor) | IC50 [1] | Ki [1] | IC50 (Neutrophil elastase) | IC50 [2] | IC50 (Adenosine receptor A2a) | IC50 [3] | Ki [3] | IC50 [4] | IC50 [5] | IC50 [6] | Ki [6]

CC[C@H](C)C(=O)O[C@H]1CCC=C2C=C[C@H](C)[C@H](CC[C@@H]3C[C@@H](O)CC(=O)O3)[C@H]21 [MEVASTATIN]
Not Active: IC50 (B2 bradykinin receptor) | IC50 [1] | Ki [1] | IC50 (Neutrophil elastase) | IC50 [2] | IC50 (Adenosine receptor A2a) | IC50 [3] | Ki [3] | IC50 [4] | IC50 [5] | IC50 [6] | Ki [6]

CN1C[C@H](CNC(=O)OCc2ccccc2)C[C@@H]2c3cccc4c3c(cn4C)C[C@H]21 [METERGOLINE]
Not Active: IC50 (B2 bradykinin receptor) | IC50 [1] | Ki [1] | IC50 (Neutrophil elastase) | IC50 [2] | IC50 (Adenosine receptor A2a) | IC50 [3] | Ki [3] | IC50 [4] | IC50 [5] | IC50 [6] | Ki [6]

— ChEMBL document CHEMBL1909046, “DrugMatrix in vitro pharmacology data”
